Laboratory results from patent US20140057950A1, “DERIVATIVES OF ENGLERIN FOR THE TREATMENT OF CANCER” (MAX-PLANCK-GESELLSCHAFT ZUR FORDERUNG DE WISSENSCHAFTEN E.V., priority 2010, published 2014).
pIC50: −log10 of the molar value.

Test system: human kidney carcinoma cell line A498
Experiment: Cell proliferation assay (WST-1), A498
Format: cell-based
Settings: A498 cells, 48 hours treatment
Experimental: A498 cells were purchased from German Collection of Microorganisms and Cell Cultures, Germany. RC-124 cell line was purchased from CLS, Germany. Minimum Essential Medium (MEM), McCoy's 5a and Dulbecco's Modified Eagle's Medium (DMEM) were purchased from PAA, Austria. Fetal calf serum was purchased from Invitrogen, Germany. Non-essential amino acids and sodium pyruvate were purchased from Sigma-Aldrich, Germany.
The human kidney carcinoma cell line A498 was cultured in Minimum Essential Medium (MEM, with Earl's salts). The African green monkey cell line BSC-1 and the human embryonic kidney cell line HEK293 were maintained in Dulbecco's Modified Eagle's Medium (DMEM). The human kidney cell line RC-124 was cultured in McCoy's 5a medium. All media were supplemented with 10% fetal calf serum and penicillin and streptomycin. The cells were maintained at 37° C. in a 5% CO2 humidified atmosphere. Cells were discarded after 20 passages.
Cell proliferation was determined as a function of the metabolic activity by means of the cell proliferation reagent WST-1 (Roche, Mannheim Germany). 4000 cells were seeded in quadruplicates into the wells of 96 well plates and were allowed to attach for 24 hours prior to treatment with different compound concentrations for 48 hours. All samples contained 0.1% DMSO. After the treatment, the WST-1 reagent was added to the cells according to the manufacturer's protocol. The absorbance was measured with the Inifinite® M200 plate reader (Tecan, Austria) at 450/690 nm. Mean values (n=4) were used to generate dose-response curves by fitting to a four-parameter IC50 equation. The IC50 values for each compound were calculated with the software GraFit 5.0.
The following IC50 values were obtained for the human kidney carcinoma cell line A498. Very similar IC50 values were obtained for the African green monkey cell line BSC-1, the human embryonic kidney cell line HEK293 and the human kidney cell line RC-124.

In the case of `CC(C)[C@@]12C[C@@H](OC(=O)CO)C(C)(O1)[C@@H]1CC[C@@H](C)[C@H]1[C@@H]2OC(=O)C1CCC2CCCCC2C1` (stereo partly drawn) [Compound 38], the pIC50 was 7.00 to 7.52.

`Cc1c(C(=O)O[C@H]2[C@@H]3[C@H](C)CC[C@H]3C3(C)O[C@@]2(C(C)C)C[C@H]3OC(=O)CO)ccc2ccccc12` [Compound 39] gave a pIC50 greater than 7.52.

With `CC(C)C12C[C@@H](OC(=O)CO)[C@@](C)(O1)[C@@H]1CC[C@@H](C)[C@H]1[C@@H]2OC(=O)c1ccc2ccccc2c1` [Compound 16] the pIC50 was greater than 7.52.

`C#CC[C@@H](O)C(=O)O[C@@H]1CC2(C(C)C)O[C@@]1(C)[C@@H]1CC[C@@H](C)[C@H]1C2OC(=O)c1ccc2ccccc2c1` (stereo partly drawn) [Compound 57] was tested, and the pIC50 was 5.30 to 6.30.

`C/C(=C\c1ccccc1)C(=O)O[C@H]1[C@@H]2[C@H](C)CC[C@H]2[C@]2(C)OC1(C(C)C)C[C@H]2OC(=O)CO` [Compound 26] gave a pIC50 of 5.30 to 6.30.

`CC(C)[C@@]12C[C@@H](OC(=O)CO)C(C)(O1)[C@@H]1CC[C@@H](C)[C@H]1[C@@H]2OC(=O)C1CCc2ccccc2C1` (stereo partly drawn) [Compound 37] showed a pIC50 of 7.00 to 7.52.

In the case of `C#CCCCC(=O)OCC(=O)O[C@@H]1C[C@]2(C(C)C)OC1(C)[C@@H]1CC[C@@H](C)[C@H]1[C@@H]2OC(=O)/C=C/c1ccccc1` [Compound 44], the pIC50 was 6.30 to 7.00.

In the case of `C#CC[C@@H](O)C(=O)O[C@@H]1CC2(C(C)C)O[C@@]1(C)[C@@H]1CC[C@@H](C)[C@H]1C2OC(=O)c1ccc(C2(C(F)(F)F)N=N2)cc1` (stereo partly drawn) [Compound 58], the pIC50 was 5.30 to 6.30.

`CCC12C[C@@H](OC(=O)CO)[C@@](C)(O1)[C@@H]1CC[C@@H](C)[C@H]1[C@@H]2OC(=O)/C=C/c1ccccc1` [Compound 13] showed a pIC50 of 5.30 to 6.30.

For `CC(C)[C@@]12C[C@@H](OC(=O)CO)C(C)(O1)[C@@H]1CC[C@@H](C)[C@H]1[C@@H]2OC(=O)c1ccc2c(c1)CCCC2` [Compound 36], the pIC50 was greater than 7.52.

For `C#CCCCC(=O)O[C@@H]1C[C@]2(C(C)C)OC1(C)[C@@H]1CC[C@@H](C)[C@H]1[C@@H]2OC(=O)/C=C/c1ccccc1` [Compound 45], the pIC50 was 5.30 to 6.30.

With `CC(C)C12C[C@@H](OC(=O)CO)[C@@](C)(O1)[C@@H]1CC[C@@H](C)[C@H]1[C@@H]2OC(=O)/C=C/c1ccc(Cl)cc1` [Compound 19] the pIC50 was 5.30 to 6.30.

`CC(C)C12C[C@@H](OC(=O)[C@@H](C)O)[C@@](C)(O1)[C@@H]1CC[C@@H](C)[C@H]1C2OC(=O)c1ccc2ccccc2c1` (stereo partly drawn) [Compound 55] was tested, and the pIC50 was 7.00 to 7.52.

Compound `C[C@@H]1CC[C@@H]2[C@@H]1[C@H](OC(=O)/C=C/c1ccccc1)[C@]1(C)C[C@@H](OC(=O)CO)[C@@]2(C)O1` [Compound 14] has a pIC50 of 5.30 to 6.30.

For `CC(C)C12C[C@@H](OC(=O)CO)[C@@](C)(O1)[C@@H]1CC[C@@H](C)[C@H]1[C@@H]2OC(=O)c1ccc(Cl)c(Cl)c1` [Compound 31], the pIC50 was 6.30 to 7.00.

`CC(C)C12C[C@@H](OC(=O)[C@H](C)O)[C@@](C)(O1)[C@@H]1CC[C@@H](C)[C@H]1C2OC(=O)c1ccc2ccccc2c1` (stereo partly drawn) [Compound 54] showed a pIC50 of 6.30 to 7.00.

Compound `CC(C)C12C[C@@H](OC(=O)CO)[C@@](C)(O1)[C@@H]1CC[C@@H](C)[C@H]1[C@@H]2OC(=O)/C=C/c1c(F)cccc1Cl` [Compound 24] has a pIC50 of 7.00 to 7.52.

Work on `CC(C)C12C[C@@H](OC(=O)[C@@H](C)O)[C@@](C)(O1)[C@@H]1CC[C@@H](C)[C@H]1C2OC(=O)/C=C/c1ccccc1` (stereo partly drawn) [Compound 53] yielded a pIC50 of 6.30 to 7.00.

For `CC(C)C12C[C@@H](OC(=O)CO)[C@@](C)(O1)[C@@H]1CC[C@@H](C)[C@H]1[C@@H]2OC(=O)/C=C/c1ccc2c(c1)OCO2` [Compound 23], the pIC50 was 5.30 to 6.30.

In the case of `CC(C)C12C[C@@H](OC(=O)CO)[C@@](C)(O1)[C@@H]1CC[C@@H](C)[C@H]1[C@@H]2OC(=O)c1ccc([N+](=O)[O-])cc1` [Compound 30], the pIC50 was 5.30 to 6.30.

`C/C(=C\C(=O)O[C@H]1[C@@H]2[C@H](C)CC[C@H]2[C@]2(C)OC1(C(C)C)C[C@H]2OC(=O)CO)c1ccccc1` [Compound 17] was tested, and the pIC50 was greater than 7.52.

`CC(C)[C@@]12C[C@@H](OC(=O)CO)C(C)(O1)[C@@H]1CC[C@@H](C)[C@H]1[C@@H]2OC(=O)c1ccc(C2(C(F)(F)F)N=N2)cc1` [Compound 41] was tested, and the pIC50 was 7.00 to 7.52.

`CC(C)C12C[C@@H](OC(=O)CO)[C@@](C)(O1)[C@@H]1CC[C@@H](C)[C@H]1[C@@H]2OC(=O)/C=C/c1ccc(F)cc1` [Compound 18] was tested, and the pIC50 was 5.30 to 6.30.

`C#CCOCC(=O)O[C@@H]1C[C@]2(C(C)C)OC1(C)[C@@H]1CC[C@@H](C)[C@H]1[C@@H]2OC(=O)/C=C/c1ccccc1` [Compound 46] was tested, and the pIC50 was 5.30 to 6.30.

With `C#CC[C@@H](O)C(=O)O[C@@H]1CC2(C(C)C)O[C@@]1(C)[C@@H]1CC[C@@H](C)[C@H]1C2OC(=O)c1ccc2c(c1)CCCC2` (stereo partly drawn) [Compound 56] the pIC50 was 5.30 to 6.30.

Work on `CC(C)C12C[C@@H](OC(=O)[C@H](C)O)[C@@](C)(O1)[C@@H]1CC[C@@H](C)[C@H]1C2OC(=O)/C=C/c1ccccc1` (stereo partly drawn) [Compound 52] yielded a pIC50 of 5.30 to 6.30.

`CC(C)C12C[C@@H](OC(=O)CO)[C@@](C)(O1)[C@@H]1CC[C@@H](C)[C@H]1[C@@H]2OC(=O)/C=C/C1CCCCC1` [Compound 15] gave a pIC50 greater than 7.52.

`CC(C)C12C[C@@H](OC(=O)CO)[C@@](C)(O1)[C@@H]1CC[C@@H](C)[C@H]1[C@@H]2OC(=O)c1ccc(Cl)cc1` [Compound 29] was tested, and the pIC50 was 5.30 to 6.30.

In the case of `COCC(=O)O[C@@H]1C[C@]2(C(C)C)OC1(C)[C@@H]1CC[C@@H](C)[C@H]1[C@@H]2OC(=O)/C=C/c1ccccc1` [Compound 43], the pIC50 was 5.30 to 6.30.

`Cc1c(C(=O)O[C@H]2[C@@H]3[C@H](C)CC[C@H]3C3(C)O[C@@]2(C(C)C)C[C@H]3OC(=O)CO)ccc2c1CCCC2` [Compound 40] was tested, and the pIC50 was greater than 7.52.
